Key:
[1] = tested on: U2OS cells; assay: Cell viability assay (CellTiter-Blue), anti-proliferative activity; type: cell-based, human; settings: 72 h treatment
Protocol: Cell viability assays were carried out by plating U2OS cells (2,000 cells per well) in 96-well plates.

[2] = tested on: genomic DNA from U2OS cells; settings: compared to equal amounts of DNA collected from CP-treated cells; 3 h treatment
Text: Samples were air dried and visualized using a Bio-Rad Molecular Imager ChemiDoc XRS+ system.

[3] = tested on: 26-mer hairpin-forming DNA oligonucleotide containing a single 1,2-GG dinucleotide; settings: 37° C., 18 h
Protocol: The reaction of hp with ACP was performed at 37° C. for 18 h. Unbound ACP and salts were removed using a Sephadex G-25 Medium size exclusion resin (GE Healthcare) on laboratory prepared spin columns (BioRad).

[4] = tested on: DNA-Pt in U2OS cells; assay: Screen of small molecule modulators of genome targeting using ACP staining as readout; type: cell-based, human; settings: U2OS cells co-treated with small molecule and ACP, confocal microscopy
Protocol: Labeled DNA-Pt were analyzed by confocal microscopy.
[…], ACP, APPOA and CP were prepared in the laboratory as described in the synthesis section of the methods. Suberoylanilide hydroxamic acid (SAHA) was purchased from Sigma and cisplatin was purchased from Tocris.
Data were analyzed with ImagaJ.

[5] = tested on: histone H4; assay: Western blot of histone H4 acetylation; type: cell-based, human; settings: U2OS cells
Protocol: Cells were washed once with PBS and lysed in lysis buffer (50 mM Tris-HCl, pH 7.5, 150 mM NaCl, 1 mM EDTA, 1% Triton X-100). For Western blot, samples were briefly sonicated followed by boiling in SDS sample buffer and separated by SDS-PAGE gels. Proteins were transferred to nitrocellulose membrane (GE Healthcare) and western blotting was performed following standard protocols. Western blots were detected by chemiluminescence (GE Healthcare Amersham ECL prime) using a Bio-Rad Molecular Imager ChemiDoc XRS+ system. The primary antibodies used for western blotting: H2AX (Millipore; #07-627), γH2AX [pSer139] (Novus Biologicals; NB100-384), histone H4 (Abcam; ab7311), acetyl-histone H4 (Lys16) (Cell Signaling; #8804), acetyl-histone H4 (Millipore; #06-866), PCNA (Santa Cruz Biotech; PC10), RAD18 (Cell Signaling; #21000), PARP (Cell Signaling; #9542), β-tubulin (Abcam; ab6046). Secondary antibodies used were: anti-rabbit IgG, HRP-linked (Cell Signaling; #7074), anti-mouse IgG, HRP-linked (Cell Signaling; #7076).

Compound | Anti-proliferative activity against U2OS cells [1] | Fluorescence of labeled genomic DNA (dot blot) [2] | Reactivity towards DNA and labeling by alkyne-containing tag in vitro [3] | Effect on ACP staining (DNA-Pt) by visual inspection [4] | Histone H4 acetylation [5]
N.N.[Cl][Pt][Cl] [cisplatin] | exhibited anti-proliferative properties |  |  |  | 
2-aminomethylpyridine(dichloro)platinum(II) azide [ACP] | exhibited anti-proliferative properties | higher level of fluorescence | can chemoselectively cross react with DNA and be labeled by an alkyne-containing tag |  | 
Nc1ncn([C@@H]2O[C@H](CO)[C@@H](O)[C@H]2O)c(=O)n1 [Compound 5-Aza, 5-Azacytidine] |  |  |  | led to the occurrence of foci of DNA-Pt | 
O=C(CCCCCCC(=O)Nc1ccccc1)NO [SAHA, Suberoylanilide hydroxamic acid] |  |  |  | led to the occurrence of foci of DNA-Pt | induced histone hyperacetylation of histone H4

Source: US20180355441A1, “VISUAL DETECTION OF PLATINATED DNA LESIONS FROM A CLICKABLE CISPLATIN PROBE USED AS DIAGNOSTIC TOOL OR TO IDENTIFY SYNERGISTIC TREATMENTS” (CENTRE NATIONAL DE LA RECHERCHE SCIENTIFIQUE, priority 2015, published 2018)
